Values of other authors in US7393522B2, “Physiologically balanced, ionized, acidic solution and methodology for use in wound healing” (NovaBay Pharmaceuticals, Inc., priority 2000, dated 2008).

Conditions: pH 5.0 to pH 8.0

OCl [HOCl, hypochlorous acid]
pH of maximum decomposition rate: 6.89
